From ChEMBL document CHEMBL2401728, “An unexpected Dimroth rearrangement leading to annelated thieno[3,2-d][1,2,3]triazolo[1,5-a]pyrimidines with potent antitumor activity” (Eur J Med Chem, 2013)

Key:
Assay type in all cases: functional
UACC-257 = test: Cytotoxicity against human UACC257 cells assessed as cellular growth at 0.01 uM after 48 hrs by SRB assay relative to control
SK-MEL-5 = test: Cytotoxicity against human SK-MEL-5 cells assessed as cellular growth at 0.01 uM after 48 hrs by SRB assay relative to control
SF-268 [1] = test: Cytotoxicity against human SF268 cells assessed as cellular growth at 0.01 uM after 48 hrs by SRB assay relative to control
A549 = test: Cytotoxicity against human A549 cells assessed as cellular growth at 0.01 uM after 48 hrs by SRB assay relative to control
HL-60(TB) = test: Cytotoxicity against human HL-60(TB) cells assessed as cellular growth at 0.01 uM after 48 hrs by SRB assay relative to control
SK-MEL-28 [2] = test: Cytotoxicity against human SK-MEL-28 cells assessed as cellular growth at 100 uM after 48 hrs by SRB assay relative to control
U-251 = test: Cytotoxicity against human U251 cells assessed as cellular growth at 100 uM after 48 hrs by SRB assay relative to control
SR = test: Cytotoxicity against human SR cells assessed as cellular growth at 100 uM after 48 hrs by SRB assay relative to control
SK-MEL-28 [3] = test: Cytotoxicity against human SK-MEL-28 cells assessed as cellular growth at 10 uM after 48 hrs by SRB assay relative to control
MDA-MB-468 = test: Cytotoxicity against human MDA-MB-468 cells after 48 hrs by SRB assay; settings: MDA-MB-468, 48 h
MDA-MB-231 = test: Cytotoxicity against human MDA-MB-231 cells assessed as cellular growth at 1 uM after 48 hrs by SRB assay relative to control
UO-31 = test: Cytotoxicity against human UO31 cells assessed as cellular growth at 1 uM after 48 hrs by SRB assay relative to control
OVCAR-5 = test: Cytotoxicity against human OVCAR5 cells assessed as cellular growth at 1 uM after 48 hrs by SRB assay relative to control
UACC-62 = test: Cytotoxicity against human UACC62 cells assessed as cellular growth at 1 uM after 48 hrs by SRB assay relative to control
SF-268 [4] = test: Cytotoxicity against human SF268 cells assessed as cellular growth at 1 uM after 48 hrs by SRB assay relative to control
NCI-H226 = test: Cytotoxicity against human NCI-H226 cells assessed as cellular growth at 1 uM after 48 hrs by SRB assay relative to control
CCRF-CEM = test: Cytotoxicity against human CCRF-CEM cells assessed as cellular growth at 1 uM after 48 hrs by SRB assay relative to control
BT-549 [5] = test: Cytotoxicity against human BT549 cells assessed as cellular growth at 0.1 uM after 48 hrs by SRB assay relative to control
BT-549 [6] = test: Cytotoxicity against human BT549 cells after 48 hrs by SRB assay; settings: BT-549, 48 h
MCF7 = test: Cytotoxicity against human MCF7 cells after 48 hrs by SRB assay; settings: MCF7, 48 h
SN12C = test: Cytotoxicity against human SN12C cells after 48 hrs by SRB assay
OVCAR-8 = test: Cytotoxicity against human OVCAR8 cells after 48 hrs by SRB assay; settings: OVCAR-8, 48 h
IGROV-1 [7] = test: Cytotoxicity against human IGROV1 cells after 48 hrs by SRB assay; settings: IGROV-1, 48 h
MDA-MB-435 = test: Cytotoxicity against human MDA-MB-435 cells after 48 hrs by SRB assay; settings: MDA-MB-435, 48 h
M14 = test: Cytotoxicity against human M14 cells after 48 hrs by SRB assay; settings: M14, 48 h
COLO 205 = test: Cytotoxicity against human COLO205 cells after 48 hrs by SRB assay; settings: COLO 205, 48 h
NCI-H322M = test: Cytotoxicity against human NCI-H322M cells after 48 hrs by SRB assay
SK-OV-3 = test: Cytotoxicity against human SKOV3 cells assessed as cellular growth at 0.1 uM after 48 hrs by SRB assay relative to control
IGROV-1 [8] = test: Cytotoxicity against human IGROV1 cells assessed as cellular growth at 0.1 uM after 48 hrs by SRB assay relative to control
HOP-62 = test: Cytotoxicity against human HOP62 cells assessed as cellular growth at 0.1 uM after 48 hrs by SRB assay relative to control
K562 = test: Cytotoxicity against human K562 cells assessed as cellular growth at 0.1 uM after 48 hrs by SRB assay relative to control
ACHN = test: Cytotoxicity against human ACHN cells assessed as cellular growth at 0.01 uM after 48 hrs by SRB assay relative to control
[9] = read-out: LC50 (the source's name)
[10] = read-out: pLC50 (the source's name) (converted)

O=C(CCCn1c2c(sc3ccccc32)c(=O)n2nnc(-c3ccccc3)c12)NCCc1c[nH]cn1 gave an Activity (UACC-257) of 108%, an Activity (SK-MEL-5) of 101% and an Activity (SF-268 [1]) of 105%. The Activity (A549) was 103%, the Activity (HL-60(TB)) was 93% and the Activity (SK-MEL-28 [2]) was -100%. For the same compound, the Activity (U-251) was -100%, the Activity (SR) was -100% and the Activity (SK-MEL-28 [3]) was -92%. For the same compound, the GI50 (MDA-MB-468; read-out: GI50) was 0.339 µM, the CC50 (MDA-MB-468; [9]) was 3.77 µM and the TGI (MDA-MB-468; read-out: TGI) was 1.21 µM. It also gave a GI50 (MDA-MB-468; read-out: pGI50 (converted)) of 0.339 µM, a CC50 (MDA-MB-468; [10]) of 3.8 µM and a TGI (MDA-MB-468; read-out: pTGI (converted)) of 1.2 µM. For the same compound, the Activity (MDA-MB-231) was 101%, the Activity (UO-31) was 69% and the Activity (OVCAR-5) was 14%. For the same compound, the Activity (UACC-62) was 94%, the Activity (SF-268 [4]) was 79% and the Activity (NCI-H226) was 101%. The Activity (CCRF-CEM) was -28%, the Activity (BT-549 [5]) was 90% and the GI50 (BT-549 [6]; read-out: GI50) was 3.32 µM. The LC50 (concentration killing 50% of cells) (BT-549 [6]; read-out: LC50) was 51.5 µM, the TGI (BT-549 [6]; read-out: TGI) was 11.4 µM and the GI50 (BT-549 [6]; read-out: pGI50 (converted)) was 3.31 µM. The LC50 (concentration killing 50% of cells) (BT-549 [6]; read-out: pLC50 (converted)) was 51.3 µM, the TGI (BT-549 [6]; read-out: pTGI (converted)) was 11.5 µM and the GI50 (MCF7; read-out: GI50) was 1.15 µM. It also gave an LC50 (MCF7; read-out: LC50) of 6.11 µM, a TGI (MCF7; read-out: TGI) of 2.65 µM and a GI50 (MCF7; read-out: pGI50 (converted)) of 1.15 µM. For the same compound, the LC50 (MCF7; read-out: pLC50 (converted)) was 6.17 µM, the TGI (MCF7; read-out: pTGI (converted)) was 2.63 µM and the GI50 (SN12C; read-out: GI50) was 0.011 µM. For the same compound, the CC50 (SN12C; [9]) was 5.51 µM, the TGI (SN12C; read-out: TGI) was 2.03 µM and the GI50 (SN12C; read-out: pGI50 (converted)) was 0.011 µM. The CC50 (SN12C; [10]) was 5.5 µM, the TGI (SN12C; read-out: pTGI (converted)) was 2.04 µM and the GI50 (OVCAR-8; read-out: GI50) was < 0.01 µM. The CC50 (OVCAR-8; [9]) was > 100 µM, the TGI (OVCAR-8; read-out: TGI) was 2.99 µM and the GI50 (OVCAR-8; read-out: pGI50 (converted)) was 0.01 µM. The CC50 (OVCAR-8; read-out: pLC50 (converted)) was > 100 µM, the TGI (OVCAR-8; read-out: pTGI (converted)) was 3.02 µM and the GI50 (IGROV-1 [7]; read-out: GI50) was 0.0997 µM. It also gave a CC50 (IGROV-1 [7]; [9]) of 5.04 µM, a TGI (IGROV-1 [7]; read-out: TGI) of 2.07 µM and a GI50 (IGROV-1 [7]; read-out: pGI50 (converted)) of 0.1 µM. The CC50 (IGROV-1 [7]; [10]) was 5.01 µM, the TGI (IGROV-1 [7]; read-out: pTGI (converted)) was 2.09 µM and the GI50 (MDA-MB-435; read-out: GI50) was 0.345 µM. For the same compound, the CC50 (MDA-MB-435; [9]) was 4.7 µM, the TGI (MDA-MB-435; read-out: TGI) was 1.87 µM and the GI50 (MDA-MB-435; read-out: pGI50 (converted)) was 0.347 µM. For the same compound, the CC50 (MDA-MB-435; [10]) was 4.68 µM, the TGI (MDA-MB-435; read-out: pTGI (converted)) was 1.86 µM and the GI50 (M14; read-out: GI50) was 0.327 µM. It also gave a TGI (M14; read-out: TGI) of 2.05 µM, a GI50 (M14; read-out: pGI50 (converted)) of 0.324 µM and a TGI (M14; read-out: pTGI (converted)) of 2.04 µM. The GI50 (COLO 205; read-out: GI50) was 0.332 µM, the CC50 (COLO 205; [9]) was 5.9 µM and the TGI (COLO 205; read-out: TGI) was 2.23 µM. It also gave a GI50 (COLO 205; read-out: pGI50 (converted)) of 0.331 µM, a CC50 (COLO 205; [10]) of 5.89 µM and a TGI (COLO 205; read-out: pTGI (converted)) of 2.24 µM. For the same compound, the GI50 (NCI-H322M; read-out: GI50) was 2.75 µM, the CC50 (NCI-H322M; [9]) was 39.2 µM and the TGI (NCI-H322M; read-out: TGI) was 9.8 µM. For the same compound, the GI50 (NCI-H322M; read-out: pGI50 (converted)) was 2.75 µM, the CC50 (NCI-H322M; [10]) was 38.9 µM and the TGI (NCI-H322M; read-out: pTGI (converted)) was 9.77 µM. For the same compound, the Activity (SK-OV-3) was 99%, the Activity (IGROV-1 [8]) was 50% and the Activity (HOP-62) was 80%. It also gave an Activity (K562) of 23% and an Activity (ACHN) of 104%.
